Data published in patent publication US20240245682A1, “ALPHA-V-BETA-8 INTEGRIN INHIBITORS AND USES THEREOF” (Pliant Therapeutics, Inc., priority 2022, published 2024).
pIC50: −log10 of the molar value.

What was measured:
Experiment in all cases: AlphaScreen proximity-based integrin binding assay with TGF-b1 LAP
Settings in all cases: values given as ranges
human integrin αVβ6 = human integrin αVβ6 (Homo sapiens, UniProt P06756+P18564)
Protocol: (§1) The biochemical potency of the disclosed compounds was determined using the AlphaScreen® (Perkin Elmer, Waltham, MA) proximity-based assay as described previously (Ullman E F et al., Luminescent oxygen channeling immunoassay: Measurement of particle binding kinetics by chemiluminescence. Proc. Natl. Acad. Sci. USA, Vol. 91, pp. 5426-5430, June 1994, herein incorporated by reference in its entirety). To gauge the potency of inhibitors of binding to each of human integrins αVβ1, αVβ6, and αVβ8, inhibitor compounds were independently incubated with one of αVβ1, αVβ6, or αVβ8, together with TGF-b1 LAP and biotinylated anti-LAP antibody plus acceptor and donor beads, following the manufacture's recommendations. The donor beads were coated with streptavidin. […] All incubations occurred at room temperatures in 50 mM Tris-HCl, pH 7.5, 0.1% BSA supplemented with 1 mM each CaCl2 and MgCl2.
(§2) The order of reagent addition was as follows:
(§3) 1. αVβ1, αVβ6, or αVβ8 integrin, test inhibitor compound, LAP, biotinylated anti-LAP antibody and acceptor beads were all added together.
(§4) 2. After 2 hours, donor beads were added. After another 30 minute incubation, samples were then read.
(§5) Integrin binding was evaluated by exciting donor beads at 680 nm, and measuring the fluorescent signal produced, between 520-620 nm, using a Biotek Instruments (Winooski, VT, USA) SynergyNeo2 multimode plate reader. Compound potency was assessed by determining inhibitor concentrations required to reduce fluorescent light output by 50%. Data analysis for IC50 determinations was carried out by nonlinear four parameter logistic regression analysis using Dotmatics ELN Software (Core Informatics Inc., Branford, Ct). […] Comp #in the Table and Examples below refers to the compound of the corresponding Example number as described in the Synthetic Examples.

human integrin αVβ1 = human integrin αVβ1 (Homo sapiens, UniProt P05556+P06756)
Chain of human integrin αVβ1 (P06756 31-992 limits assumed): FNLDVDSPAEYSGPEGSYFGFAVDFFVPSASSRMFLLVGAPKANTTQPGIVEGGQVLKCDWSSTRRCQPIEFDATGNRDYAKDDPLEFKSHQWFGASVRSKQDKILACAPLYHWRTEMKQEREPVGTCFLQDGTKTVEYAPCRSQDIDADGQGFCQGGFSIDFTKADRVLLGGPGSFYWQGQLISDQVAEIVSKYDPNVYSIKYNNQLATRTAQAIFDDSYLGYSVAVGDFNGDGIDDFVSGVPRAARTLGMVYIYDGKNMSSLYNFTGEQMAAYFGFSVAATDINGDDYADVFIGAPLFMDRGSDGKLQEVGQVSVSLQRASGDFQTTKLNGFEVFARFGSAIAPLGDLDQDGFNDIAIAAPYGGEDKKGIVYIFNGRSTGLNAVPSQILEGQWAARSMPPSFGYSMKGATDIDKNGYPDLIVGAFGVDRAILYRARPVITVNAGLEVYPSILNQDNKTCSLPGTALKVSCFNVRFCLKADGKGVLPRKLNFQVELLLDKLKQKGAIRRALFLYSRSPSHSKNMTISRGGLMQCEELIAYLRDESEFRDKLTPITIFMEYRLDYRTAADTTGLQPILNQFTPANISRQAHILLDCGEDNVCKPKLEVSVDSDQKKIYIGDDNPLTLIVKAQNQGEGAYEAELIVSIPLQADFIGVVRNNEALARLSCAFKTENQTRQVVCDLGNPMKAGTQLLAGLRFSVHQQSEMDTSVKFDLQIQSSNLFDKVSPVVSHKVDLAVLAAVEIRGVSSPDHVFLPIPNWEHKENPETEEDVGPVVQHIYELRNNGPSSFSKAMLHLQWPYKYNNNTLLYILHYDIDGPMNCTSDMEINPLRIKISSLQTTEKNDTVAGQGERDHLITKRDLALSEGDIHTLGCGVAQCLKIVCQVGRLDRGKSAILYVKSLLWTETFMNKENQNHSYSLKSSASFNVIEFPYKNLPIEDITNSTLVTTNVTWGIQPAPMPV
Chain of human integrin αVβ1 (P05556 21-728 limits assumed): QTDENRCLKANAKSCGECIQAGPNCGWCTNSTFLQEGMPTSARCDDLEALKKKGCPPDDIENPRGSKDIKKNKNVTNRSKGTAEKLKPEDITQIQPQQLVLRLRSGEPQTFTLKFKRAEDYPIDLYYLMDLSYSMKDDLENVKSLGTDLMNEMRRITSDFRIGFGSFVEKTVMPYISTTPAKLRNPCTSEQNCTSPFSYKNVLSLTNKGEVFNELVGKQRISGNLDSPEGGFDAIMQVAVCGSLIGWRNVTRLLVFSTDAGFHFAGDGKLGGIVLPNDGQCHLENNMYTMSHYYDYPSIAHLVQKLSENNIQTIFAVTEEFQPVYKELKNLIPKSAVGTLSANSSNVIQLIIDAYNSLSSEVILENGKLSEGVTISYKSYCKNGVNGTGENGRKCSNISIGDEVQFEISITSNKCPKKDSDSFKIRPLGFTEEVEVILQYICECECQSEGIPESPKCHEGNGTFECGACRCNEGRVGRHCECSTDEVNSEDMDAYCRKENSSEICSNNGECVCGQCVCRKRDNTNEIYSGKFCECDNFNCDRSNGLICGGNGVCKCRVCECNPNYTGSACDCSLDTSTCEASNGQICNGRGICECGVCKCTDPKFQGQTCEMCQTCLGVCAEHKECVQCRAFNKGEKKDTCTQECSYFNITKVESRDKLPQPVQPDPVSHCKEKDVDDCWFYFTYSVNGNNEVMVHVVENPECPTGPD
Protocol: as §1, §2, §3, §4, §5

human integrin αVβ8 = human integrin αVβ8 (Homo sapiens, UniProt P06756+P26012)
Chain of human integrin αVβ8 (P06756 31-992 limits assumed): as the sequence (P06756 31-992 limits assumed) above
Chain of human integrin αVβ8 (P26012 43-684 limits assumed): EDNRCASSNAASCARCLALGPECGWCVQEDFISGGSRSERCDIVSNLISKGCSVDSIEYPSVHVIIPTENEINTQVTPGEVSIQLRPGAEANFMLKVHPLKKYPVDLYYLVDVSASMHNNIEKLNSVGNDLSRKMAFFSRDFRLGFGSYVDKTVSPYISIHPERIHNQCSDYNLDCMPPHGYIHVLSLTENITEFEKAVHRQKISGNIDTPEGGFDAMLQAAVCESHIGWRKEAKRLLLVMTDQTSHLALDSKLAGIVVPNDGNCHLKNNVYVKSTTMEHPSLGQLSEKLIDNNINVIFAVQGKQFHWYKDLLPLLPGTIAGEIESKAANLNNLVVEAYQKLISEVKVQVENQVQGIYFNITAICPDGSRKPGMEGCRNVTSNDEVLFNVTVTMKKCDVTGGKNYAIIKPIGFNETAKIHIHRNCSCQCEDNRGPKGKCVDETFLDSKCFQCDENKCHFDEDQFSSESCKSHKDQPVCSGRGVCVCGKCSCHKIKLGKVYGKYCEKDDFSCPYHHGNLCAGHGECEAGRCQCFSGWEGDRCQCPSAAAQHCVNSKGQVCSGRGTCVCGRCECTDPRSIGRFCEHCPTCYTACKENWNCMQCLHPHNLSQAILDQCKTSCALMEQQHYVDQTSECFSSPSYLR
Protocol: as §1, §2, §3, §4, §5

Chain of human integrin αVβ6 (P06756 31-992 limits assumed): as the sequence (P06756 31-992 limits assumed) above
Chain of human integrin αVβ6 (P18564 22-707 limits assumed): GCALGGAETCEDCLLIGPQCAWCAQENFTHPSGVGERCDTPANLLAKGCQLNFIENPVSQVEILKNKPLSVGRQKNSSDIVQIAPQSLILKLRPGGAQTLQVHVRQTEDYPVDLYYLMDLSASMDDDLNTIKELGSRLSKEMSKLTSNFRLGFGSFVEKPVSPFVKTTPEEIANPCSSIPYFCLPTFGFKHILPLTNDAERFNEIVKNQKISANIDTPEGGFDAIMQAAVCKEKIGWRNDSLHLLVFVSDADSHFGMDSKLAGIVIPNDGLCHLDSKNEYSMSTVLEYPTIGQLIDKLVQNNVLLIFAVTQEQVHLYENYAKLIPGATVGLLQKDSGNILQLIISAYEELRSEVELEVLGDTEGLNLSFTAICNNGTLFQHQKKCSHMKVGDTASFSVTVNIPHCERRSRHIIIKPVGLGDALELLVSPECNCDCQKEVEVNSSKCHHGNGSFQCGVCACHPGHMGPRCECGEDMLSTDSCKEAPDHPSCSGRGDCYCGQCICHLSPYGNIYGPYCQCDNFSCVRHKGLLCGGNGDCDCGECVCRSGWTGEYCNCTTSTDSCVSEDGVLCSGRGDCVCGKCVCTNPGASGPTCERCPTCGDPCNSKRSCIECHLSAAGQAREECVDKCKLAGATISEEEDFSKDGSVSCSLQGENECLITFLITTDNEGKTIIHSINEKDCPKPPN

pIC50 (human integrin αVβ6)	pIC50 (human integrin αVβ1)	pIC50 (human integrin αVβ8)	Compound
< 6.30	> 7.30	> 7.30	O=C(O)[C@H](CCOCCCCc1ccc2c(n1)NCCC2)NC(=O)C1(c2cccc(Cl)c2)CCOCC1 [Compound 89, N-(4-(3-chlorophenyl)tetrahydro-2H-pyran-4-carbonyl)-O-(4-(5,6,7,8-tetrahydro-1,8-naphthyridin-2-yl)butyl)-L-homoserine]
≤ 6.30	> 7.30	> 7.30	O=C(O)[C@H](CCOCCCCc1ccc2c(n1)NCCC2)NC(=O)C1(c2nccnc2C(F)(F)F)CC1 [Compound 67, O-(4-(5,6,7,8-tetrahydro-1,8-naphthyridin-2-yl)butyl)-N-(1-(3-(trifluoromethyl)pyrazin-2-yl)cyclopropane-1-carbonyl)-L-homoserine]
≤ 6.30	6.82 to 7.30	> 7.30	COc1cccc(C#N)c1C1(C(=O)N[C@@H](CCOCCCCc2ccc3c(n2)NCCC3)C(=O)O)CC1 [Compound 56, N-(1-(2-cyano-6-methoxyphenyl)cyclopropane-1-carbonyl)-O-(4-(5,6,7,8-tetrahydro-1,8-naphthyridin-2-yl)butyl)-L-homoserine]
≤ 6.30	> 7.30	> 7.30	O=C(O)[C@H](CCOCCCCc1ccc2c(n1)NCCC2)NC(=O)C1(c2c(Cl)cc[nH]c2=O)CC1 [Compound 68, N-(1-(4-chloro-2-oxo-1,2-dihydropyridin-3-yl)cyclopropane-1-carbonyl)-O-(4-(5,6,7,8-tetrahydro-1,8-naphthyridin-2-yl)butyl)-L-homoserine]
< 6.30	> 7.30	> 7.30	COc1cccc(C2(C(=O)N[C@@H](CCOCCCCc3ccc4c(n3)NCCC4)C(=O)O)CCOCC2)c1 [Compound 87, N-(4-(3-methoxyphenyl)tetrahydro-2H-pyran-4-carbonyl)-O-(4-(5,6,7,8-tetrahydro-1,8-naphthyridin-2-yl)butyl)-L-homoserine]
≤ 6.30	> 7.30	> 7.30	COc1ncnc(C)c1C1(C(=O)N[C@@H](CCOCCCCc2ccc3c(n2)NCCC3)C(=O)O)CC1 [Compound 61, N-(1-(4-methoxy-6-methylpyrimidin-5-yl)cyclopropane-1-carbonyl)-O-(4-(5,6,7,8-tetrahydro-1,8-naphthyridin-2-yl)butyl)-L-homoserine]
≤ 6.30	6.82 to 7.30	6.82 to 7.30	COCc1cccnc1C1(C(=O)N[C@@H](CCOCCCCc2ccc3c(n2)NCCC3)C(=O)O)CC1 [Compound 53, N-(1-(3-(methoxymethyl)pyridin-2-yl)cyclopropane-1-carbonyl)-O-(4-(5,6,7,8-tetrahydro-1,8-naphthyridin-2-yl)butyl)-L-homoserine]
< 6.30	6.82 to 7.30	6.82 to 7.30	NC(=O)c1cccc(F)c1C1(C(=O)N[C@@H](CCOCCCCc2ccc3c(n2)NCCC3)C(=O)O)CC1 [Compound 95, N-(1-(2-carbamoyl-6-fluorophenyl)cyclopropane-1-carbonyl)-O-(4-(5,6,7,8-tetrahydro-1,8-naphthyridin-2-yl)butyl)-L-homoserine]
≤ 6.30	> 7.30	> 7.30	Cn1cnc(Cl)c1C1(C(=O)N[C@@H](CCOCCCCc2ccc3c(n2)NCCC3)C(=O)O)CC1 [Compound 80, N-(1-(4-chloro-1-methyl-1H-imidazol-5-yl)cyclopropane-1-carbonyl)-O-(4-(5,6,7,8-tetrahydro-1,8-naphthyridin-2-yl)butyl)-L-homoserine]
< 6.30	> 7.30	6.82 to 7.30	O=C(O)[C@H](CCOCCCCc1ccc2c(n1)NCCC2)NC(=O)C1(c2ccc(F)cc2)CCOCC1 [Compound 85, N-(4-(4-fluorophenyl)tetrahydro-2H-pyran-4-carbonyl)-O-(4-(5,6,7,8-tetrahydro-1,8-naphthyridin-2-yl)butyl)-L-homoserine]
< 6.30	> 7.30	6.82 to 7.30	O=C(O)[C@H](CCOCCCCc1ccc2c(n1)NCCC2)NC(=O)C1(n2c(C3CC3)cccc2=O)CC1 [Compound 91, N-(1-(6-cyclopropyl-2-oxopyridin-1(2H)-yl)cyclopropane-1-carbonyl)-O-(4-(5,6,7,8-tetrahydro-1,8-naphthyridin-2-yl)butyl)-L-homoserine]

The remaining lines, values behind:

Compound	pIC50 (human integrin αVβ6)	pIC50 (human integrin αVβ1)	pIC50 (human integrin αVβ8)
Cc1cccc(C2(C(=O)N[C@@H](CCOCCCCc3ccc4c(n3)NCCC4)C(=O)O)CC2)n1 [Compound 20, N-(1-(6-methylpyridin-2-yl)cyclopropane-1-carbonyl)-O-(4-(5,6,7,8-tetrahydro-1,8-naphthyridin-2-yl)butyl)-L-homoserine]	≤ 6.30	6.30 to 6.60	≤ 6.30
O=C(O)[C@H](CCOCCCCc1ccc2c(n1)NCCC2)NC(=O)C1(c2ncccc2C(F)F)CC1 [Compound 40, N-(1-(3-(difluoromethyl)pyridin-2-yl)cyclopropane-1-carbonyl)-O-(4-(5,6,7,8-tetrahydro-1,8-naphthyridin-2-yl)butyl)-L-homoserine]	≤ 6.30	> 7.30	> 7.30
CC(C)(C(=O)N[C@@H](CCOCCCCc1ccc2c(n1)NCCC2)C(=O)O)c1cc(F)cnc1Cl [Compound 23, N-(2-(2-chloro-5-fluoropyridin-3-yl)-2-methylpropanoyl)-O-(4-(5,6,7,8-tetrahydro-1,8-naphthyridin-2-yl)butyl)-L-homoserine]	6.30 to 6.60	> 7.30	6.82 to 7.30
O=C(O)[C@H](CCOCCCCc1ccc2c(n1)NCCC2)NC(=O)C1(c2ncccc2C(F)(F)F)CC1 [Compound 25, O-(4-(5,6,7,8-tetrahydro-1,8-naphthyridin-2-yl)butyl)-N-(1-(3-(trifluoromethyl)pyridin-2-yl)cyclopropane-1-carbonyl)-L-homoserine]	≤ 6.30	> 7.30	> 7.30
Cc1ncc(F)cc1C1(C(=O)N[C@@H](CCOCCCCc2ccc3c(n2)NCCC3)C(=O)O)CC1 [Compound 28, N-(1-(5-fluoro-2-methylpyridin-3-yl)cyclopropane-1-carbonyl)-O-(4-(5,6,7,8-tetrahydro-1,8-naphthyridin-2-yl)butyl)-L-homoserine]	≤ 6.30	> 7.30	> 7.30
C[C@H](C(=O)N[C@@H](CCOCCCCc1ccc2c(n1)NCCC2)C(=O)O)c1ccccc1 [Compound 3, N—((S)-2-phenylpropanoyl)-O-(4-(5,6,7,8-tetrahydro-1,8-naphthyridin-2-yl)butyl)-L-homoserine]	≤ 6.30	> 7.30	> 7.30
Cc1nccnc1C1(C(=O)N[C@@H](CCOCCCCc2ccc3c(n2)NCCC3)C(=O)O)CC1 [Compound 42, N-(1-(3-methylpyrazin-2-yl)cyclopropane-1-carbonyl)-O-(4-(5,6,7,8-tetrahydro-1,8-naphthyridin-2-yl)butyl)-L-homoserine]	≤ 6.30	> 7.30	> 7.30
Cc1cncc(F)c1C1(C(=O)N[C@@H](CCOCCCCc2ccc3c(n2)NCCC3)C(=O)O)CC1 [Compound 47, N-(1-(3-fluoro-5-methylpyridin-4-yl)cyclopropane-1-carbonyl)-O-(4-(5,6,7,8-tetrahydro-1,8-naphthyridin-2-yl)butyl)-L-homoserine]	6.30 to 6.60	> 7.30	> 7.30
COc1nccnc1C1(C(=O)N[C@@H](CCOCCCCc2ccc3c(n2)NCCC3)C(=O)O)CC1 [Compound 50, N-(1-(3-methoxypyrazin-2-yl)cyclopropane-1-carbonyl)-O-(4-(5,6,7,8-tetrahydro-1,8-naphthyridin-2-yl)butyl)-L-homoserine]	≤ 6.30	> 7.30	6.82 to 7.30
Cc1ncncc1C1(C(=O)N[C@@H](CCOCCCCc2ccc3c(n2)NCCC3)C(=O)O)CC1 [Compound 19, N-(1-(4-methylpyrimidin-5-yl)cyclopropane-1-carbonyl)-O-(4-(5,6,7,8-tetrahydro-1,8-naphthyridin-2-yl)butyl)-L-homoserine]	≤ 6.30	> 7.30	> 7.30
O=C(O)[C@H](CCOCCCCc1ccc2c(n1)NCCC2)NC(=O)C1(c2ncccc2CF)CC1 [Compound 52, N-(1-(3-(fluoromethyl)pyridin-2-yl)cyclopropane-1-carbonyl)-O-(4-(5,6,7,8-tetrahydro-1,8-naphthyridin-2-yl)butyl)-L-homoserine]	≤ 6.30	> 7.30	> 7.30
Cn1ncc(Cl)c1C1(C(=O)N[C@@H](CCOCCCCc2ccc3c(n2)NCCC3)C(=O)O)CC1 [Compound 51, N-(1-(4-chloro-1-methyl-1H-pyrazol-5-yl)cyclopropane-1-carbonyl)-O-(4-(5,6,7,8-tetrahydro-1,8-naphthyridin-2-yl)butyl)-L-homoserine]	≤ 6.30	> 7.30	> 7.30
